# In US11858913B2, “Bicyclic pyridazinones and methods of use thereof” (ALIGOS THERAPEUTICS, INC., priority 2020, dated 2024):
# pEC50: −log10 of the molar value.
# Target: T1, human thyroid receptor beta ligand-binding domain (LBD) (Homo sapiens, UniProt P10828)
# T1 construct: purchased Invitrogen
# T1 sequence (P10828 217-461 limits assumed): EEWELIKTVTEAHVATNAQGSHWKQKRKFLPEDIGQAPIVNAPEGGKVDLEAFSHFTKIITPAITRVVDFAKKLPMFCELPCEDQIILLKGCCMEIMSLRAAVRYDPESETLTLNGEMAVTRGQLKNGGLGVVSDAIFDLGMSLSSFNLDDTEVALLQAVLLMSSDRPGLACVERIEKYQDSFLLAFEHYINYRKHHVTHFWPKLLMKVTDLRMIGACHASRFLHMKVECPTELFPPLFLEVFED
# Experiment: THR Biochemical Assay (Assay 1): TR-FRET thyroid receptor beta coactivator assay
# Conditions: GST-tagged THR-beta LBD 1 nM, fluorescein SRC2-2 coactivator peptide 200 nM, 1 hr at rt, TR-FRET ratio 520:495; read-out: Assay 1 (EC50, THR-beta agonist activity)
# Text: The TR-FRET thyroid receptor beta coactivator assay was used with slight, optimized modifications of the manufacturer's protocol (Invitrogen). The assay uses a terbium-labeled anti-GST antibody, a glutathione-S-transferase (GST) tagged human thyroid receptor, beta or alpha, ligand-binding domain (LBD), and a fluorescein labeled SRC2-2 coactivator peptide. The antibody interacts with the LBD, where the agonist also binds, resulting in increased affinity for the SRC2-2 coactivator peptide causing energy transfer […] the acceptor fluorophore and a FRET emission shift from 495 to 520 nm. The energy transfer was detected as an increase in the fluorescence emission of the fluorescein acceptor, and a decrease in the fluorescence emission of the terbium donor. The assay was performed in a 384-well black plate in a final volume of 20 μL. Serial dilution of various test agonists was performed in DMSO (1% final DMSO concentration) and added to the test plate. […] The TR-FRET was then measured on a Victor multilabel reader (Perkin Elmer) using an excitation wavelength of 340 nm with emission filters of 495 nm and 520 nm. The assay was quantified by expressing a ratio (520:495) of the intensities, and the resulting activation curves; EC50 values were generated using a sigmoidal dose response (variable slope) equation in GraphPad™ Prism 8.0.
compound,measurement,value
"CC1CCc2c(Oc3c(Cl)cc(-n4nc(N)c(=O)[nH]c4=O)cc3Cl)n[nH]c(=O)c21 (single isomer, unassigned) [Compound 1a, 6-amino-2-(3,5-dichloro-4-((7-methyl-1-oxo-2,5,6,7-tetrahydro-1H-cyclopenta[d]pyridazin-4-yl)oxy)phenyl)-1,2,4-triazine-3,5(2H,4H)-dione]",pEC50,> 7.30
"CC1CCc2c(Oc3c(Cl)cc(-n4nc(N)c(=O)[nH]c4=O)cc3Cl)n[nH]c(=O)c21 (single isomer, unassigned) [Compound 1b, 6-amino-2-(3,5-dichloro-4-((7-methyl-1-oxo-2,5,6,7-tetrahydro-1H-cyclopenta[d]pyridazin-4-yl)oxy)phenyl)-1,2,4-triazine-3,5(2H,4H)-dione]",pEC50,6.60 to 7.30
